In brackets after ≈: the same amount, converted by molar mass.

Assay type in all cases: functional
A short description of experiment [1]: In vitro antimicrobial activity against penicillin-intermediate Streptococcus pneumoniae 49619.
Another experiment concerns Enterococcus faecalis. Description: In vitro antimicrobial activity against vancomycin-susceptible Enterococcus faecalis 29212.
The next experiment deals with Staphylococcus aureus. Nature of the experiment: In vitro antimicrobial activity against methicillin resistant Staphylococcus aureus 27660.

As usually defined, the MIC is the least concentration at which growth counts as inhibited. Read a low MIC as inhibition by little substance. With `Cn1cc(NC(=O)c2cc(NC(=O)c3cc(NC(=O)c4ccccn4)cn3C)cn2C)cc1C(=O)NCCN1CCOCC1`, the MIC (in experiment [1]; with Enterococcus faecalis) was over 32 µg/mL throughout.
Regarding `Cn1cc(NC(=O)c2cc(NC(=O)c3cc(-c4ccncc4)cn3C)cn2C)cc1C(=O)NCCN1CCOCC1`, the MIC in experiment [1] was 2 µg/mL (≈ 3.58 µM); against Enterococcus faecalis, 32 µg/mL (≈ 57.3 µM); with Staphylococcus aureus, over 32 µg/mL.
Take `Cn1cc(NC(=O)c2cc(NC(=O)c3cc(NC(=O)c4sc(-c5ccccc5)cc4Cl)cn3C)cn2C)cc1C(=O)NCCN1CCOCC1`: the MIC is 2 µg/mL (≈ 2.79 µM) in experiment [1] and over 32 µg/mL against Enterococcus faecalis.
Consider `Cn1cc(NC(=O)c2cc(NC(=O)c3cc(NC(=O)c4cc5cccc(Cl)c5s4)cn3C)cn2C)cc1C(=O)NCCN1CCOCC1`, for which the MIC is 2 µg/mL (≈ 2.89 µM) in experiment [1] and over 32 µg/mL against Enterococcus faecalis.
As for `Cn1cc(NC(=O)c2cc(NC(=O)c3cc(NC(=O)c4ccoc4)cn3C)cn2C)cc1C(=O)NCCN1CCOCC1`, the MIC in experiment [1] was 8 µg/mL (≈ 13.5 µM); in the experiment with Enterococcus faecalis, over 32 µg/mL.
On to `Cn1cc(NC(=O)c2cc(NC(=O)c3cc(-c4ccc(F)cc4)cn3C)cn2C)cc1C(=O)NCCN1CCOCC1`, for which the MIC turned out to be 2 µg/mL (≈ 3.47 µM) in experiment [1], 8 µg/mL (≈ 13.9 µM) with Enterococcus faecalis and 16 µg/mL (≈ 27.8 µM) with Staphylococcus aureus.
As for `COc1ccc(C(=O)Nc2cc(C(=O)Nc3cc(C(=O)Nc4cc(C(=O)NCCN5CCOCC5)n(C)c4)n(C)c3)n(C)c2)cc1`, the MIC in experiment [1] is 0.125 µg/mL (≈ 0.198 µM); in the experiment on Enterococcus faecalis, over 32 µg/mL.
Take `Cn1cc(NC(=O)c2cc(NC(=O)c3cc(-c4ccc5[nH]cnc5c4)cn3C)cn2C)cc1C(=O)NCCN1CCOCC1`: the MIC was over 8 µg/mL in experiment [1], over 32 µg/mL in the experiment on Enterococcus faecalis and over 32 µg/mL in the experiment on Staphylococcus aureus.
Turning to `Cn1cc(NC(=O)c2cc(NC(=O)c3cc(NC(=O)c4cc5ccccc5cn4)cn3C)cn2C)cc1C(=O)NCCCN1CCOCC1`, the MIC (in experiment [1]; in the experiment with Enterococcus faecalis; in the experiment on Staphylococcus aureus) was 2 µg/mL (≈ 3 µM) in each case.
On to `Cn1cc(NC(=O)c2cc(NC(=O)c3cc(NC(=O)c4sc5cc(Cl)ccc5c4Cl)cn3C)cn2C)cc1C(=O)NCCN1CCOCC1`, for which the MIC in experiment [1] amounted to 0.25 µg/mL (≈ 0.345 µM); in the experiment on Enterococcus faecalis, 32 µg/mL (≈ 44.1 µM).
Regarding `Cn1cc(NC(=O)c2cc(NC(=O)c3cc(NC(=O)c4cccnc4)cn3C)cn2C)cc1C(=O)NCCN1CCOCC1`, the minimal inhibitory concentration (MIC) in experiment [1] is 4 µg/mL (≈ 6.65 µM); in the experiment with Enterococcus faecalis, over 32 µg/mL.
In the case of `Cn1cc(NC(=O)c2cc(NC(=O)c3cc(NC(=O)c4cc5ccccc5cn4)cn3C)cn2C)cc1C(=O)NCCCN1CCCCC1`, the results for the MIC (in experiment [1]; against Enterococcus faecalis; with Staphylococcus aureus) were 0.25 µg/mL (≈ 0.377 µM), 4 µg/mL (≈ 6.03 µM) and 4 µg/mL (≈ 6.03 µM), respectively.
Consider `Cc1nnsc1-c1cc(C(=O)Nc2cc(C(=O)Nc3cc(C(=O)NCCN4CCOCC4)n(C)c3)n(C)c2)n(C)c1`, for which the MIC in experiment [1] came to 2 µg/mL (≈ 3.45 µM); against Enterococcus faecalis, 8 µg/mL (≈ 13.8 µM); with Staphylococcus aureus, 16 µg/mL (≈ 27.6 µM).
Turning to `Cn1cc(NC(=O)c2cc(NC(=O)c3cc(-c4cccc(F)c4)cn3C)cn2C)cc1C(=O)NCCN1CCOCC1`, the MIC was determined as 16 µg/mL (≈ 27.8 µM) in experiment [1], 32 µg/mL (≈ 55.6 µM) in the experiment with Enterococcus faecalis and 32 µg/mL (≈ 55.6 µM) against Staphylococcus aureus.
Regarding `Cn1cc(NC(=O)c2cc(NC(=O)c3cc(NC(=O)c4csc(-c5cccnc5)n4)cn3C)cn2C)cc1C(=O)NCCN1CCOCC1`, the MIC is 2 µg/mL (≈ 2.92 µM) in experiment [1] and over 32 µg/mL against Enterococcus faecalis.
Take `Cn1cc(NC(=O)c2cc(NC(=O)c3cc(NC(=O)c4cnc5ccccc5c4)cn3C)cn2C)cc1C(=O)NCCN1CCOCC1`: the values for the MIC (in experiment [1]; with Enterococcus faecalis) were 16 µg/mL (≈ 24.6 µM) and over 32 µg/mL, respectively.
Taken in the same sequence, the figures for `Cn1cc(NC(=O)c2cc(NC(=O)c3cc(NC(=O)c4cn5ccccc5n4)cn3C)cn2C)cc1C(=O)NCCN1CCOCC1` were 0.031 µg/mL (≈ 0.0484 µM) and 2 µg/mL (≈ 3.12 µM).
In the case of `Cn1cc(NC(=O)c2cc(NC(=O)c3cc(NC(=O)c4sc5cc(F)c(F)cc5c4Cl)cn3C)cn2C)cc1C(=O)NCCN1CCOCC1`, the figures for the MIC (in experiment [1]; in the experiment with Enterococcus faecalis) were 0.5 µg/mL (≈ 0.688 µM) and 8 µg/mL (≈ 11 µM), respectively.
Take `Cn1cc(NC(=O)c2cc(NC(=O)c3cc(NC(=O)c4cc5ccccc5oc4=O)cn3C)cn2C)cc1C(=O)NCCN1CCOCC1`: the MIC in experiment [1] was determined as 0.5 µg/mL (≈ 0.748 µM); with Enterococcus faecalis, 16 µg/mL (≈ 23.9 µM).
With `Cn1cc(NC(=O)c2cc(NC(=O)c3cc(NC(=O)c4ccccc4)cn3C)cn2C)cc1C(=O)NCCN1CCOCC1`, the MIC stood at 16 µg/mL (≈ 26.6 µM) in experiment [1] and 32 µg/mL (≈ 53.3 µM) against Enterococcus faecalis.
On to `Cn1cc(NC(=O)c2cc(NC(=O)c3cc(NC(=O)c4ccc(OC(F)F)cc4)cn3C)cn2C)cc1C(=O)NCCN1CCOCC1`, for which the MIC was 0.062 µg/mL (≈ 0.093 µM) in experiment [1] and 4 µg/mL (≈ 6 µM) with Enterococcus faecalis.
On to `Cn1cc(NC(=O)c2cc(NC(=O)c3cc(NC(=O)c4ccc5ccccc5n4)cn3C)cn2C)cc1C(=O)NCCN1CCOCC1`, for which the MIC in experiment [1] stood at 1 µg/mL (≈ 1.53 µM); in the experiment on Enterococcus faecalis, 32 µg/mL (≈ 49.1 µM).
`Cn1cc(NC(=O)c2cc(NC(=O)c3cc(NC(=O)c4cccn4C)cn3C)cn2C)cc1C(=O)NCCN1CCOCC1`: the MIC in experiment [1] is 32 µg/mL (≈ 53 µM); in the experiment on Enterococcus faecalis it was over 32 µg/mL.
As to `Cn1cc(NC(=O)c2cc(NC(=O)c3cc(NC(=O)c4ccc5c(c4)OCO5)cn3C)cn2C)cc1C(=O)NCCN1CCOCC1`, the MIC was found to be 2 µg/mL (≈ 3.1 µM) in experiment [1] and 16 µg/mL (≈ 24.8 µM) in the experiment with Enterococcus faecalis.
In the case of `Cn1cc(NC(=O)c2cc(NC(=O)c3cc(NC(=O)c4sc5cc(Cl)sc5c4Cl)cn3C)cn2C)cc1C(=O)NCCN1CCOCC1`, the MIC in experiment [1] turned out to be 0.125 µg/mL (≈ 0.171 µM); with Enterococcus faecalis it was 16 µg/mL (≈ 21.9 µM).
As for `Cn1cc(NC(=O)c2cc(NC(=O)c3cc(NC(=O)c4cnc5ccccc5n4)cn3C)cn2C)cc1C(=O)NCCN1CCOCC1`, the MIC (in experiment [1]; with Enterococcus faecalis) was over 32 µg/mL each time.
For the molecule `Cn1cc(NC(=O)c2cc(NC(=O)c3cc(NC(=O)c4cn5cccnc5n4)cn3C)cn2C)cc1C(=O)NCCN1CCOCC1`, the results for the MIC (in experiment [1]; in the experiment on Enterococcus faecalis) were 0.5 µg/mL (≈ 0.779 µM) and 8 µg/mL (≈ 12.5 µM), respectively.
Turning to `Cn1cc(NC(=O)c2cc(NC(=O)c3cc(NC(=O)c4cccs4)cn3C)cn2C)cc1C(=O)NCCN1CCOCC1`, the MIC in experiment [1] came out at 2 µg/mL (≈ 3.3 µM); with Enterococcus faecalis, 16 µg/mL (≈ 26.4 µM).
For `Cn1cc(NC(=O)c2cc(NC(=O)c3cc(NC(=O)c4ccc5cnccc5n4)cn3C)cn2C)cc1C(=O)NCCN1CCOCC1`, the MIC in experiment [1] stood at 0.25 µg/mL (≈ 0.383 µM); with Enterococcus faecalis it was 4 µg/mL (≈ 6.13 µM).
Taken in the same sequence, the figures for `Cn1cc(NC(=O)c2cc(NC(=O)c3cc(NC(=O)c4ccc5cccnc5n4)cn3C)cn2C)cc1C(=O)NCCN1CCOCC1` were 2 µg/mL (≈ 3.06 µM) and over 32 µg/mL.
As to `Cn1cc(NC(=O)c2cc(NC(=O)c3cc(NC(=O)c4sc5cc(C(F)(F)F)ccc5c4Cl)cn3C)cn2C)cc1C(=O)NCCN1CCOCC1`, the MIC came out at 4 µg/mL (≈ 5.27 µM) in experiment [1] and 8 µg/mL (≈ 10.5 µM) in the experiment with Enterococcus faecalis.
`COc1cc(Cl)ccc1C(=O)Nc1cc(C(=O)Nc2cc(C(=O)Nc3cc(C(=O)NCCN4CCOCC4)n(C)c3)n(C)c2)n(C)c1`: the MIC in experiment [1] was 0.5 µg/mL (≈ 0.752 µM); against Enterococcus faecalis, 8 µg/mL (≈ 12 µM).
In the case of `Cn1cc(NC(=O)c2cc(NC(=O)c3cc(NC(=O)c4cc5ccccc5n4C)cn3C)cn2C)cc1C(=O)NCCN1CCOCC1`, the MIC in experiment [1] is 8 µg/mL (≈ 12.2 µM); in the experiment with Enterococcus faecalis, 32 µg/mL (≈ 48.9 µM).
For the molecule `Cc1nc2ccncc2cc1C(=O)Nc1cc(C(=O)Nc2cc(C(=O)Nc3cc(C(=O)NCCN4CCOCC4)n(C)c3)n(C)c2)n(C)c1`, the MIC (in experiment [1]; in the experiment on Enterococcus faecalis) was over 32 µg/mL in each case.
Turning to `Cn1cc(NC(=O)c2cc(NC(=O)c3cc(NC(=O)c4ccc(OC(F)(F)F)cc4)cn3C)cn2C)cc1C(=O)NCCN1CCOCC1`, the MIC in experiment [1] is 1 µg/mL (≈ 1.46 µM); in the experiment on Enterococcus faecalis, over 32 µg/mL.
Regarding `Cn1cc(NC(=O)c2cc(NC(=O)c3cc(NC(=O)c4nsc5ccccc45)cn3C)cn2C)cc1C(=O)NCCN1CCOCC1`, the MIC turned out to be 0.125 µg/mL (≈ 0.19 µM) in experiment [1] and 1 µg/mL (≈ 1.52 µM) in the experiment on Enterococcus faecalis.
In the case of `Cn1cc(NC(=O)c2cc(NC(=O)c3cc(NC(=O)c4cc5ccccc5s4)cn3C)cn2C)cc1C(=O)NCCN1CCOCC1`, the MIC in experiment [1] stood at 1 µg/mL (≈ 1.52 µM); against Enterococcus faecalis, 32 µg/mL (≈ 48.7 µM).

These data come from ChEMBL document CHEMBL1145073, “DNA binding ligands targeting drug-resistant bacteria: structure, activity, and pharmacology” (J Med Chem, 2003).
